Assay [1] deals with Staphylococcus aureus. Briefly: Antibacterial activity against SCCmec type 4 genotype-positive and methicillin-resistant Staphylococcus aureus by CLSI method. Format: functional, organism-based.
The subject of assay [2] is Staphylococcus aureus. Description: Antibacterial activity against SCCmec type 2 genotype-positive and methicillin-resistant Staphylococcus aureus by CLSI method. Format: functional, organism-based.

The values that follow come from ChEMBL document CHEMBL1275494, “Microbiological and genotypic analysis of methicillin-resistant Staphylococcus aureus bacteremia” (2008).

The source made the active and inactive calls. The calls are words filed in the database; no cut-off is given here.

On to `CN(C)[C@@H]1C(O)=C(C(N)=O)C(=O)[C@@]2(O)C(O)=C3C(=O)c4c(O)cccc4[C@@](C)(O)[C@H]3C[C@@H]12`, for which the result in assay [1] was inactive.

For the compound `C[C@H]1COc2c(N3CCN(C)CC3)c(F)cc3c(=O)c(C(=O)O)cn1c23`, the result in assay [1] was Active. For the same compound, the outcome in assay [2] was inactive.

As for `CCC[C@@H]1C[C@@H](C(=O)N[C@@H]([C@H]2O[C@H](SC)[C@H](O)[C@@H](O)[C@H]2O)[C@H](C)Cl)N(C)C1`, the outcome in assay [1] was Active. The outcome in assay [2] was inactive.
